Measured values reported in ChEMBL document CHEMBL5543142, “Discovery of YFJ-36: Design, Synthesis, and Antibacterial Activities of Catechol-Conjugated β-Lactams against Gram-Negative Bacteria” (J Med Chem, 2024).

Legend:
[1] = Volume of distribution at steady state in ICR mouse at 20 mg/kg,iv administration measured upto 4 hrs by LC-MS/MS analysis; assay type: ADME, organism-based; details: in vivo, read-out: Vdss
[2] = AUC (0 to infinity) in Sprague-Dawley rat at 5 mg/kg,iv administration measured upto 4 hrs by LC-MS/MS analysis; assay type: ADME, organism-based; details: in vivo
[3] = system: Acinetobacter baumannii; test: Antibacterial activity against multidrug-resistant Acinetobacter baumannii BM-2023-D2-010 infected in ICR mouse assessed as survival rate at 4.71 mg/kg,iv after 1 and 5 hour of post-infection measured after 7 days relative to control; assay type: functional; details: time 7 day
[4] = AUC (0 to infinity) in ICR mouse at 20 mg/kg,iv administration measured upto 4 hrs by LC-MS/MS analysis; assay type: ADME, organism-based; details: in vivo
[5] = Volume of distribution at steady state in Sprague-Dawley rat at 5 mg/kg,iv administration measured upto 4 hrs by LC-MS/MS analysis; assay type: ADME, organism-based; details: in vivo, read-out: Vdss
[6] = MRT in Sprague-Dawley rat at 5 mg/kg,iv administration measured upto 4 hrs by LC-MS/MS analysis; assay type: ADME, organism-based; details: in vivo
[7] = Half life in ICR mouse at 20 mg/kg,iv administration measured upto 4 hrs by LC-MS/MS analysis; assay type: ADME, organism-based; details: in vivo
[8] = system: Acinetobacter baumannii; test: Antibacterial activity against multidrug-resistant Acinetobacter baumannii BM-2023-D2-010 infected in ICR mouse assessed as survival rate at 9.6 mg/kg,iv after 1 and 5 hour of post-infection measured after 7 days relative to control; assay type: functional; details: time 7 day
[9] = Clearance in Sprague-Dawley rat at 5 mg/kg,iv administration measured upto 4 hrs by LC-MS/MS analysis; assay type: ADME, organism-based; details: in vivo
[10] = system: Acinetobacter baumannii; test: Antibacterial activity against multidrug-resistant Acinetobacter baumannii BM-2023-D2-010 infected in ICR mouse assessed as survival rate at 6.72 mg/kg,iv after 1 and 5 hour of post-infection measured after 7 days relative to control; assay type: functional; details: time 7 day
[11] = system: Acinetobacter baumannii; test: Antibacterial activity against multidrug-resistant Acinetobacter baumannii BM-2023-D2-010 infected in ICR mouse assessed as survival rate at 28 mg/kg,iv after 1 and 5 hour of post-infection measured after 7 days relative to control; assay type: functional; details: time 7 day
[12] = system: Acinetobacter baumannii; test: Antibacterial activity against multidrug-resistant Acinetobacter baumannii BM-2023-D2-010 infected in ICR mouse assessed as survival rate at 40 mg/kg,iv after 1 and 5 hour of post-infection measured after 7 days relative to control; assay type: functional; details: time 7 day
[13] = Clearance in ICR mouse at 20 mg/kg,iv administration measured upto 4 hrs by LC-MS/MS analysis; assay type: ADME, organism-based; details: in vivo
[14] = system: Acinetobacter baumannii; test: Antibacterial activity against multidrug-resistant Acinetobacter baumannii BM-2023-D2-010 infected in ICR mouse assessed as survival rate at 13.7 mg/kg,iv after 1 and 5 hour of post-infection measured after 7 days relative to control; assay type: functional; details: time 7 day
[15] = MRT in ICR mouse at 20 mg/kg,iv administration measured upto 4 hrs by LC-MS/MS analysis; assay type: ADME, organism-based; details: in vivo
[16] = system: Acinetobacter baumannii; test: Antibacterial activity against multidrug-resistant Acinetobacter baumannii BM-2023-D2-010 infected in ICR mouse assessed as survival rate at 19.6 mg/kg,iv after 1 and 5 hour of post-infection measured after 7 days relative to control; assay type: functional; details: time 7 day
[17] = Half life in Sprague-Dawley rat at 5 mg/kg,iv administration measured upto 4 hrs by LC-MS/MS analysis; assay type: ADME, organism-based; details: in vivo
[18] = MRT in ICR mouse at 20 mg/kg,iv administration measured upto 6 hrs by LC-MS/MS analysis; assay type: ADME, organism-based; details: in vivo
[19] = Half life in ICR mouse at 20 mg/kg,iv administration measured upto 6 hrs by LC-MS/MS analysis; assay type: ADME, organism-based; details: in vivo
[20] = AUC (0 to infinity) in ICR mouse at 20 mg/kg,iv administration measured upto 6 hrs by LC-MS/MS analysis; assay type: ADME, organism-based; details: in vivo
[21] = Volume of distribution at steady state in ICR mouse at 20 mg/kg,iv administration measured upto 6 hrs by LC-MS/MS analysis; assay type: ADME, organism-based; details: in vivo, read-out: Vdss
[22] = system: Acinetobacter baumannii; test: Antibacterial activity against multidrug-resistant Acinetobacter baumannii BM-2023-D2-010 infected in ICR mouse assessed as survival rate at 3.3 mg/kg,iv after 1 and 5 hour of post-infection measured after 7 days relative to control; assay type: functional; details: time 7 day
[23] = Clearance in ICR mouse at 20 mg/kg,iv administration measured upto 6 hrs by LC-MS/MS analysis; assay type: ADME, organism-based; details: in vivo
[24] = molecular target: hERG (KCNH2) (Homo sapiens, UniProt Q12809); test: Inhibition of hERG at 3 uM by whole cell Qpatch assay relative to control; assay type: toxicity
Sequence of hERG (KCNH2) (Q12809 whole entry): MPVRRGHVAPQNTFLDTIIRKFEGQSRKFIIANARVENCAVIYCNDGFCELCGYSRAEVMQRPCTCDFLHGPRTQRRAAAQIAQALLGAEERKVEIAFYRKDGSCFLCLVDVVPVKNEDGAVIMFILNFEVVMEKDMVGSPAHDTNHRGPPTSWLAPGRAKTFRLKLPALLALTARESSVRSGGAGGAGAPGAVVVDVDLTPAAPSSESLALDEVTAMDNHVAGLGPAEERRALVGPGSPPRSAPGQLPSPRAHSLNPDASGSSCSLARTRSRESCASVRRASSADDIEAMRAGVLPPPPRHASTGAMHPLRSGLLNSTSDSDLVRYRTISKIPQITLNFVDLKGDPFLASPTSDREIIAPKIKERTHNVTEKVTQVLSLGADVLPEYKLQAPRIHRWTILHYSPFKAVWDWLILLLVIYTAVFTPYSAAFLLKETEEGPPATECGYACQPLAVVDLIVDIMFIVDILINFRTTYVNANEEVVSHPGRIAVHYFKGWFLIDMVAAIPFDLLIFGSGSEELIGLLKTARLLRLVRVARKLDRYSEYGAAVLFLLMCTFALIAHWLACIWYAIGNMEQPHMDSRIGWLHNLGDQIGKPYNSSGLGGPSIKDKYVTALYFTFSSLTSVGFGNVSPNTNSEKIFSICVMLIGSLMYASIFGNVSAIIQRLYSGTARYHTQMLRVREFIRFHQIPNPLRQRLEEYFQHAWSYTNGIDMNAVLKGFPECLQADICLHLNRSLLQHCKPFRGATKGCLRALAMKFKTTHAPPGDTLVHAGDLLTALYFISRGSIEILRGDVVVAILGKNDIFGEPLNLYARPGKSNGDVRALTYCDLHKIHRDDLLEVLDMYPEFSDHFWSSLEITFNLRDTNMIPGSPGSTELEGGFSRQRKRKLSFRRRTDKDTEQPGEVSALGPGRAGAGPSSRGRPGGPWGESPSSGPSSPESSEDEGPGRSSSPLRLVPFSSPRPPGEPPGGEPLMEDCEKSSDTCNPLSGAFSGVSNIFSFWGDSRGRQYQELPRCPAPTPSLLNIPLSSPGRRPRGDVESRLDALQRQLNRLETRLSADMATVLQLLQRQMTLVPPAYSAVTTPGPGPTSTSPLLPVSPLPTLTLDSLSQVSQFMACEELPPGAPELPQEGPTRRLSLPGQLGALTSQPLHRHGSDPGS

Nc1nc(/C(=N/O[C@@H](C(=O)[O-])C2CCC(F)(F)CC2)C(=O)N[C@@H]2C(=O)N3C(C(=O)O)=C(CSCCNC(=O)c4ccc(O)c(O)c4Cl)CS[C@H]23)cs1.[Na+]
Vd [1]: 0.488 L/kg
AUC(0-inf) [2]: 2260 ng·h/mL
Activity [3]: 20%
AUC(0-inf) [4]: 8910 ng·h/mL
Vd [5]: 0.37 L/kg
MRT [6]: 9.6 min
half-life [7]: 29.4 min
Activity [8]: 70%
clearance [9]: 38.7 mL/min/kg
Activity [10]: 30%
Activity [11]: 100%
Activity [12]: 100%
clearance [13]: 49.8 mL/min/kg
Activity [14]: 100%
MRT [15]: 9.6 min
Activity [16]: 100%
half-life [17]: 13.8 min

CC(C)(O/N=C(\C(=O)N[C@@H]1C(=O)N2C(C(=O)[O-])=C(C[N+]3(CCNC(=O)c4ccc(O)c(O)c4Cl)CCCC3)CS[C@H]12)c1csc(N)n1)C(=O)[O-].[Na+]
Activity [3]: 20%
MRT [18]: 16.8 min
half-life [19]: 16.2 min
AUC(0-inf) [20]: 11600 ng·h/mL
Vd [21]: 0.488 L/kg
Activity [8]: 70%
Activity [10]: 50%
Activity [11]: 100%
Activity [12]: 100%
Activity [14]: 100%
Activity [22]: 0%
clearance [23]: 29.2 mL/min/kg
Activity [16]: 100%

COc1cc(N)c(Cl)cc1C(=O)N[C@H]1CCN(CCCOc2ccc(F)cc2)C[C@H]1OC [REL-CISAPRIDE]
inhibition at 3 µM [24]: 97.8%
